Converted amounts (≈) assume the structure as drawn. “Also recorded” adds a separate entry of the source. Like-named read-outs stand apart in the source and are kept apart here. Positions of bridges follow the written chain, without caps; N, C: chain ends. Residues, ends and D or L forms follow the SMILES beside them.
Assays:
SFTSV [1] = assay: microbe, parasite or virus in culture; format: cell-based, SFTSV HB29 strain; conditions: for IC50: Severe fever with thrombocytopenia syndrome virus
SFTSV [2] = format: cell-based, SFTSV HB29 strain
SFTSV [3] = format: cell-based, SFTSV HB29 strain; remark: listed apart in the source
SFTSV [4] = format: cell-based, SFTSV HB29 strain; remark: listed apart in the source
SFTSV Gc glycoprotein = conditions: cited from earlier work
SFTSV [5] = conditions: cited from earlier work

N=C(N)NCCC[C@@H]1NC(=O)[C@@H](NC(=O)[C@@H](N)CCCCN)CCCCNC(=O)[C@H](CO)NC(=O)CNC(=O)[C@H](Cc2ccccc2)NC(=O)CNC1=O [HKU-P1] (H-KKRGFGS; lactam 2-C)
combination effect (in words) (SFTSV [1]): synergistic antiviral effects in vitro; also recorded: consistently synergistic with favipiravir at different concentrations | SFTSV-NP expression (immunofluorescence) (SFTSV [2]): markedly reduced | anti-SFTSV activity (in words) (SFTSV [3]): best anti-SFTSV activity; also recorded: displayed anti-SFTSV effects | dose dependence of viral load reduction (SFTSV [3]): reduced SFTSV viral load in a dose-dependent manner | reduction in SFTSV viral RNA load (SFTSV [3]): > 50% | viral load reduction, post-infection group (SFTSV [4]): no significant viral load reduction | viral load reduction, pre-infection group (SFTSV [4]): no significant viral load reduction

Oc1c(Cl)cc(Cl)c(Cl)c1Cc1c(O)c(Cl)cc(Cl)c1Cl [hexachlorophene]
likely target (SFTSV Gc glycoprotein): likely targets the SFTSV Gc glycoprotein | anti-SFTSV activity (SFTSV [5]): inhibited SFTSV replication at low micromolar concentrations

NC(=O)c1nc(F)c[nH]c1=O [Favipiravir]
IC50 (SFTSV [1]; Huh-7, read-out: Favipiravir IC50, alone): 1.25 ± 0.101 mg/L (≈ 7.94 µM) | IC50 (SFTSV [1]; Huh-7, read-out: Favipiravir IC50, with HKU-P1 62.5 μg/mL): 0.979 ± 0.194 mg/L (≈ 6.23 µM) | IC50 (SFTSV [1]; Huh-7, read-out: Favipiravir IC50, with HKU-P1 125 μg/mL): 0.864 ± 0.132 mg/L (≈ 5.5 µM) | IC50 (SFTSV [1]; Huh-7, read-out: Favipiravir IC50, with HKU-P1 250 μg/mL): 0.805 ± 0.105 mg/L (≈ 5.12 µM) | anti-SFTSV activity in vitro and in vivo (SFTSV [5]): exhibit in vitro and in vivo activity against SFTSV | broad-spectrum antiviral effects (SFTSV [5]): broad-spectrum antiviral effects against various RNA viruses, including SFTSV

Reference: publication PMC8539749 (Viruses, 2021)
